Reference: ChEMBL document CHEMBL3301361, “Experimental in vitro DMPK and physicochemical data on a set of publicly disclosed compounds”
In brackets after ≈: the same amount, converted by molar mass.

Columns and labels:
in vitro [1] = conditions: SD, HW or BN, rat, plasma
in vitro [2] = conditions: human, plasma
physchem [3] = conditions: pH 7.4 buffer
physchem [4] = experiment: physchem
in vitro [5] = conditions: Beagle, dog, plasma
in vitro [6] = conditions: hepatocytes
in vitro [7] = conditions: human
physchem [8] = conditions: octan-1-ol/water
in vitro [9] = conditions: human, hepatocytes

Row | SMILES | fraction unbound at 5 h (in vitro [1]) | fraction unbound at 5 h (in vitro [2]; PPB) | fraction unbound at 5 h (in vitro [5]) | logD (physchem [8]; pH 7.4, LogD7.4) | also measured
1 | CC(C)(C)NC(=O)[C@@H]1C[C@@H]2CCCC[C@@H]2CN1C[C@@H](O)[C@H](Cc1ccccc1)NC(=O)[C@H](CC(N)=O)NC(=O)c1ccc2ccccc2n1 | 0.0048 | 0.0114 | – | – | solubility thermodynamic (physchem [3]): 36.3 µM (≈ 24.4 µg/mL); pKa (physchem [4]): 7.14
2 | NC(=O)c1cnc(N[C@H]2CCCNC2)c2cc(-c3ccccc3)sc12 | 0.224 | – | 0.0366 | – | –
3 | O=C(NC12CC3CC(CC(C3)C1)C2)OCCNC1CCCCC1 | 0.129 | 0.11 | 0.16 | – | –
4 | O=C(O)COc1ccc(C(F)(F)F)cc1CN1CCN(C(=O)c2ccccc2)CC1 | – | – | – | – | hepatocyte CLint (in vitro [6]): < 3 µL/min/1e6 cells; microsomal CLint (in vitro [7]; liver microsomes): 4.7 µL/min/mg; pKa (physchem [4]): 6.9
5 | CNCC[C@@H](Oc1cc(Cl)ccc1C#N)c1ccccc1 | – | – | – | – | hepatocyte CLint (in vitro [6]): > 150 µL/min/1e6 cells; pKa (physchem [4]): 9.9
6 | CNCC[C@@H](Oc1cc(OC)ccc1C#N)c1ccccc1 | – | – | – | 0.87 | hepatocyte CLint (in vitro [6]): 142 µL/min/1e6 cells; microsomal CLint (in vitro [7]; liver microsomes): 26 µL/min/mg; pKa (physchem [4]): 10.2
7 | CN(C)CCN1CCN(c2cc(C(=O)NC[C@H]3CC[C@H](CNC(=O)OC(C)(C)C)CC3)c3ccccc3n2)CC1 | – | – | 0.0293 | – | –
8 | Cc1cc(-c2ccc(Cl)c(C(=O)NCC3(O)CCCCCC3)c2)nn1C[C@H](O)CN | 0.309 | 0.304 | – | 0.57 | hepatocyte CLint (in vitro [6]): < 3 µL/min/1e6 cells; microsomal CLint (in vitro [7]; liver microsomes): < 3 µL/min/mg; hepatocyte CLint (in vitro [9]): < 3 µL/min/1e6 cells; pKa (physchem [4]): 8.6
9 | Cc1c(Sc2ccc(Cl)cc2)c2c(S(C)(=O)=O)cccc2n1CC(=O)O | – | 0.035 | 0.0256 | 0.58 | microsomal CLint (in vitro [7]; microsomes): < 3 µL/min/mg
10 | CCCCc1nc2c(N)nc3ccccc3c2n1CC(C)C | 0.0307 | 0.062 | – | 3.82 | microsomal CLint (in vitro [7]; liver microsomes): < 3 µL/min/mg; pKa (physchem [4]): 7.3
11 | Cc1c(CC(=O)O)c2cc(F)ccc2n1S(=O)(=O)c1ccc(S(C)(=O)=O)cc1 | – | – | 0.0521 | -0.44 | –
12 | NC1=Nc2ccccc2Sc2cccc(F)c21 | – | 0.0568 | – | – | hepatocyte CLint (in vitro [9]): 13.2 µL/min/1e6 cells; pKa (physchem [4]): 6.5
13 | NC1=Nc2ccccc2Sc2ccccc21 | – | – | – | – | hepatocyte CLint (in vitro [9]): 7.94 µL/min/1e6 cells; pKa (physchem [4]): 7.2
14 | CC(C)Cn1c(=O)n(C)c(=O)c2c(C(=O)N3CC[C@@H](O)C3)c(Cc3c[nH]c4ccccc34)sc21 | – | 0.0854 | 0.443 | 2.35 | microsomal CLint (in vitro [7]; liver microsomes): 107 µL/min/mg
15 | Cc1cc(F)ccc1Oc1cccc2c(=O)cc(N3CCOCC3)[nH]c12 | 0.0854 | – | 0.0088 | – | –
16 | COc1ncc(-c2cccc3c2C[C@H](NC(=O)c2ccc(COCC(F)(F)F)nc2)CO3)cn1 | – | 0.0366 | 0.0705 | – | solubility thermodynamic (physchem [3]): 158 µM (≈ 75.2 µg/mL)
17 | Cc1ccc2c(c1)c(-c1cc(C)nc3ccccc13)c(C)n2CC(=O)O | – | 0.004 | 0.0133 | 2.88 | microsomal CLint (in vitro [7]; liver microsomes): < 3 µL/min/mg
18 | COc1ccc2c(c1)c(CC(=O)O)c(C)n2-c1ccnc2cc(Cl)ccc12 | – | 0.0099 | 0.0183 | 1.68 | microsomal CLint (in vitro [7]; liver microsomes): < 3 µL/min/mg
19 | N#Cc1ccccc1C[C@@H](C(=O)O)N1CCC(CN2CCC(Oc3ccc(Cl)c(Cl)c3)CC2)CC1 | 0.224 | – | 0.0661 | – | solubility thermodynamic (physchem [3]): 288 µM (≈ 149 µg/mL)

Row | SMILES | fraction unbound at 5 h (in vitro [1]) | fraction unbound at 5 h (in vitro [2]; PPB) | fraction unbound at 5 h (in vitro [5]) | logD (physchem [8]; pH 7.4, LogD7.4) | also measured
20 | N#Cc1ccc2ccc(=O)n(CCN3CC[C@H](NCc4cc5c(cn4)OCCO5)[C@H](O)C3)c2c1 | 0.734 | – | 0.608 | 0.46 | –
21 | N#Cc1ccc2ccc(=O)n(CCN3CC[C@@H](NCc4cc5c(cn4)OCCO5)[C@@H](O)C3)c2c1 | 0.471 | – | 0.602 | 0.45 | –
22 | C[C@H]1CN(c2cc(N(CCO)Cc3cccc4ccccc34)[nH]c(=O)n2)CCO1 | 0.0948 | 0.16 | 0.299 | – | –
23 | Cc1c(Cl)ccc(OC2CCN(C3CCN(C(=O)c4cccc(S(C)(=O)=O)c4)CC3)CC2)c1Cl | – | 0.035 | 0.035 | 3.33 | microsomal CLint (in vitro [7]; liver microsomes): 13.5 µL/min/mg
24 | COc1ccc(NC(=O)c2ccc(Cn3ccnn3)c3ccccc23)c(C(=O)NCC2CCOCC2)n1 | – | – | 0.028 | – | –
25 | CC(C)(C)NC(=O)NCCN1CCC(O)(CNC(=O)c2cc(Cl)cc(Cl)c2)CC1 | 0.232 | 0.232 | 0.36 | – | –
26 | O=C(CN1CCN(CCC2CCOCC2)CC1)NC12CC3CC(CC(C3)C1)C2 | 0.392 | 0.529 | 0.431 | – | –
27 | CC(C)(C)S(=O)(=O)CCCN1CCN(CC(=O)NC23CC4CC(CC(C4)C2)C3)CC1 | 0.309 | 0.349 | 0.289 | – | –
28 | CC(C)(C)NC(=O)NCCN1CCN(CC(=O)Nc2cc(Cl)cc(Cl)c2)CC1 | – | 0.0521 | 0.0556 | – | –
29 | CC(C)(C)NC(=O)NCCN1CCC(CNC(=O)c2cc(Cl)cc(Cl)c2)CC1 | 0.17 | 0.11 | 0.11 | – | –
30 | CC(C)c1nc2ccc(-c3ccc(F)cc3)cc2c(=O)n1C[C@H]1CCCN(C(C)C)C1 | – | – | – | 3.6 | hepatocyte CLint (in vitro [6]): 29.5 µL/min/1e6 cells; microsomal CLint (in vitro [7]; microsomes): 12.9 µL/min/mg; solubility thermodynamic (physchem [3]): 537 µM (≈ 226 µg/mL); pKa (physchem [4]): 9.91
31 | Cc1nc2ccc(-c3ccc(Cl)cc3)cc2c(=O)n1C[C@H]1CCCN(C(C)C)C1 | – | – | – | 3.3 | hepatocyte CLint (in vitro [6]): 3.8 µL/min/1e6 cells; microsomal CLint (in vitro [7]; microsomes): < 3 µL/min/mg; pKa (physchem [4]): 10.1
32 | OC[C@H]1C[C@@H](n2nnc3c(N[C@@H]4C[C@H]4c4ccc(F)c(F)c4)nc(SCCC(F)(F)F)nc32)[C@H](O)[C@@H]1O | – | 0.0015 | 0.002 | 3.99 | solubility thermodynamic (physchem [3]): 7.2 µM (≈ 3.93 µg/mL)
33 | OCCO[C@H]1C[C@@H](n2nnc3c(N[C@@H]4C[C@H]4c4ccc(F)c(F)c4)nc(SCCC(F)(F)F)nc32)[C@H](O)[C@@H]1O | – | 0.0015 | 0.0046 | 4.17 | –
34 | C[C@H](CO)Nc1nc(SCc2cccc(F)c2F)nc2[nH]c(=O)cnc12 | – | 0.0114 | 0.028 | 3.1 | solubility thermodynamic (physchem [3]): 3.5 µM (≈ 1.33 µg/mL)
35 | O=S(=O)(c1ccccc1)N1CCN(Cc2ccccc2)CC1 | – | – | – | – | hepatocyte CLint (in vitro [6]): > 150 µL/min/1e6 cells; microsomal CLint (in vitro [7]; liver microsomes): 64 µL/min/mg; pKa (physchem [4]): 5.6
36 | CC(C)Cc1nn(C)c(=O)c2c(SCCCO)n(Cc3cccc4ccccc34)cc12 | – | 0.0027 | 0.0013 | – | –
37 | O=C(NCC12CC3CC(CC(C3)C1)C2)c1cc(CN2C[C@@H]3C[C@H]2CN3)ccc1Cl | – | 0.0968 | 0.114 | 1.45 | microsomal CLint (in vitro [7]; liver microsomes): 13 µL/min/mg
38 | C[C@H](CO)Nc1nc(SCc2cccc(F)c2F)nc2nc(N)sc12 | – | 0.0196 | 0.0366 | 3.29 | solubility thermodynamic (physchem [3]): 8.1 µM (≈ 3.11 µg/mL)

Row | SMILES | fraction unbound at 5 h (in vitro [1]) | fraction unbound at 5 h (in vitro [2]; PPB) | fraction unbound at 5 h (in vitro [5]) | logD (physchem [8]; pH 7.4, LogD7.4) | also measured
39 | CCCSc1nc(N[C@@H]2C[C@H]2c2ccccc2)c2nnn([C@@H]3C[C@H](O)[C@@H](O)[C@H]3O)c2n1 | – | – | 0.0066 | 3.97 | microsomal CLint (in vitro [7]; liver microsomes): < 3 µL/min/mg; solubility thermodynamic (physchem [3]): 1.1 µM (≈ 0.487 µg/mL)
40 | CCCCNc1nc(SCCC)nc2c1nnn2[C@@H]1C[C@H](CO)[C@@H](O)[C@H]1O | – | 0.024 | 0.0467 | 3.07 | microsomal CLint (in vitro [7]; microsomes): 6 µL/min/mg
41 | C[C@H](CO)Nc1nc(SCc2cccc(Cl)c2F)nc2[nH]c(=O)sc12 | – | – | 0.0005 | 3.53 | solubility thermodynamic (physchem [3]): 1 µM (≈ 0.401 µg/mL)
42 | Cc1oc(CN2CCNCC2)cc1C(=O)NCC12CC3CC(CC(C3)C1)C2 | – | 0.148 | 0.437 | 1.03 | –
43 | CCOc1cc2ncc(C(N)=O)c(Nc3cc(C)ccc3F)c2cc1N1CCN(C)CC1 | 0.107 | – | 0.365 | – | –
44 | OC[C@H](Nc1ncc(Cl)c(Nc2cc(C3CC3)n[nH]2)n1)c1ccc(F)cc1 | – | 0.0437 | 0.0499 | 3.75 | –
45 | Cc1ccc(C(=O)N2CC3CNCC(C2)O3)cc1NC(=O)CC12CC3CC(CC(C3)C1)C2 | – | – | – | 2.12 | hepatocyte CLint (in vitro [6]): 16.2 µL/min/1e6 cells; microsomal CLint (in vitro [7]; microsomes): 71.2 µL/min/mg; pKa (physchem [4]): 7.18
46 | O=C(NCC12CC3CC(CC(C3)C1)C2)c1ccnc(N2CCNCC2)c1Cl | – | – | – | – | hepatocyte CLint (in vitro [6]): 7.2 µL/min/1e6 cells; microsomal CLint (in vitro [7]; liver microsomes): 73 µL/min/mg; pKa (physchem [4]): 8.7
47 | CCCSc1nc(N)c2ncn([C@@H]3O[C@H](CO)[C@@H](O)[C@H]3O)c2n1 | – | 0.483 | 0.591 | – | –
48 | Cc1cc(Nc2nc(N[C@@H](C)c3ccc(F)cn3)c(C#N)nc2C)n[nH]1 | 0.19 | 0.173 | 0.262 | – | –
49 | CC(C)Cn1c(=O)n(C)c(=O)c2c(SCCCO)n(Cc3cccc4ccccc34)cc21 | – | – | 0.0034 | 4.36 | –
50 | CC(NC(C)(C)C)C(=O)c1cccc(Cl)c1 (stereo not drawn) [BUPROPION] | – | – | – | – | hepatocyte CLint (in vitro [6]): 72.4 µL/min/1e6 cells; fraction unbound at 5 h (in vitro [2]): 0.54; logD (physchem [8]; pH 7.4): 2.12; microsomal CLint (in vitro [7]; microsomes): 12 µL/min/mg; pKa (physchem [4]): 8.4
51 | CCCNC(=O)NS(=O)(=O)c1ccc(Cl)cc1 [CHLORPROPAMIDE] | – | 0.04 | 0.142 | -0.33 | –
52 | CNc1cc2[nH]c(=O)n(-c3ccc(NC(=O)NS(=O)(=O)c4ccc(Cl)s4)cc3)c(=O)c2cc1F [ELINOGREL] | – | 0.0042 | 0.0069 | – | –
53 | CC(C)n1c(/C=C/C(O)CC(O)CC(=O)O)c(-c2ccc(F)cc2)c2ccccc21 (stereo not drawn) [FLUVASTATIN] | – | – | 0.0028 | – | fraction unbound at 5 h (in vitro [2]): 0.0048
54 | CCCc1nc(C(C)(C)O)c(C(=O)O)n1Cc1ccc(-c2ccccc2-c2nnn[nH]2)cc1 [OLMESARTAN] | – | – | 0.0119 | – | –
55 | CCNC(=O)[C@H]1C[C@@](F)(c2ccc(CN3CCCC3)c(F)c2)C1 [PF-03654746] | 0.772 | – | 0.807 | – | –
56 | CNC(=C[N+](=O)[O-])NCCSCc1ccc(CN(C)C)o1 [RANITIDINE] | – | – | 0.711 | -0.95 | –
